Patent publication US7732637B2, “Acylamide compounds having secretagogue or inducer activity of adiponectin” (Ajinomoto Co., Inc., priority 2005, dated 2010)

test system: uncoupling protein 2 (UCP2) gene; experiment: UCP2 mRNA expression level in liver of ob/ob mice; type: in vivo; settings: 500 mg/kg orally once a day; autopsy 38th day; divided by GAPDH mRNA; vs control groups; FIG. 4
Protocol: (§1) Male ob/ob mice of 5 weeks old (purchased from Charles River Laboratories Japan, Inc.) were preliminarily fed for one week by an experimental diet containing 25% by weight ratio of fats. Then, they were divided into groups so that their body weights and blood glucose were the same between the groups. After the division, N-lauroyl-L-valine (500 mg/kg) was orally administered once a day, and a control group was set, to which vehicle was administered. […] The non-fasting blood glucose was measured on the 6th, 14th and 26th day after starting the administration. The blood glucose was measured by collecting 6 μL of the blood from the caudal vein and using a Fuji DriChem system (produced by FUJIFILM Medical Co., Ltd.). […] Further, on the 27th day after starting the administration, the blood was collected by retroorbital bleeding, and the insulin and triglyceride concentrations in plasma were measured. […] SYBER GREEN Master Mix (ABI) and a primer for amplifying uncoupling protein 2 (UCP2) gene, acyl-CoA oxidase (ACO) gene or glyceraldehyde-3-phosphate dehydrogenase (GAPDH) gene were added to cDNA corresponding to 7.5 ng of total RNA, and the gene expression level was measured with ABI 7700 detector. […]

Row | Compound | UCP2 mRNA expression level in the liver
1 | CCCCCCCCCCCC(=O)N[C@H](C(=O)O)C(C)C [Example 20, N-lauroyl-L-valine] | significantly increased

test system: ob/ob mice; experiment: Oral administration to ob/ob mice on 25% fat diet: blood glucose, glycated hemoglobin, plasma insulin and triglyceride; type: in vivo; settings: 500 mg/kg orally once a day; 6th, 14th and 26th day vs before starting the administration; FIG. 1
Protocol: Male ob/ob mice of 5 weeks old (purchased from Charles River Laboratories Japan, Inc.) were preliminarily fed for one week by an experimental diet containing 25% by weight ratio of fats. Then, they were divided into groups so that their body weights and blood glucose were the same between the groups. After the division, N-lauroyl-L-valine (500 mg/kg) was orally administered once a day, and a control group was set, to which vehicle was administered. Taking into consideration the possibility that the effect of N-lauroyl-L-valine depends on the diet intake, pair-feeding group was also set as a control group in addition to the vehicle administered group, to which vehicle was daily administered in an average diet intake per a day of the N-lauroyl-L-valine administered group and, therefore, the diet intake thereof is quite the same as that of the N-lauroyl-L-valine administered group during the test period. The non-fasting blood glucose was measured on the 6th, 14th and 26th day after starting the administration. The blood glucose was measured by collecting 6 μL of the blood from the caudal vein and using a Fuji DriChem system (produced by FUJIFILM Medical Co., Ltd.). On the 26th day after starting the administration, the blood was collected by retroorbital bleeding, and 5 μL of its blood was used to conduct the measurement of glycated hemoglobin with the analyzer (HLC-723 GHbV, by Tosoh Technosystem). Further, on the 27th day after starting the administration, the blood was collected by retroorbital bleeding, and the insulin and triglyceride concentrations in plasma were measured. The measurement of the insulin concentration in plasma was conducted by using an insulin measurement kit (by Morinaga Institute of Biological Science, Inc.). The measurement of the triglyceride concentration in plasma was conducted by using a Fuji DriChem system. On the 38th day after staring the administration, autopsy was conducted to collect the liver of the mouse. Then, total RNA was extracted from the frozen liver by using ISOGEN (by Nippon Gene Co., Ltd.), and 0.5 μg of total RNA, oligo (dT) (by Invitrogen) and SuperScript III reverse transcriptase (by Invitrogen) were used to prepare cDNA. SYBER GREEN Master Mix (ABI) and a primer for amplifying uncoupling protein 2 (UCP2) gene, acyl-CoA oxidase (ACO) gene or glyceraldehyde-3-phosphate dehydrogenase (GAPDH) gene were added to cDNA corresponding to 7.5 ng of total RNA, and the gene expression level was measured with ABI 7700 detector. The expression levels of UCP2 and ACO genes were amended by being divided by the expression level of GAPDH mRNA. Two kinds of primers for amplifying UCP2 gene were used wherein the base sequences were ggcctctggaaagggactt and […] from 5′. […]

Row | Compound | non-fasting blood glucose
2 | CCCCCCCCCCCC(=O)N[C@H](C(=O)O)C(C)C [Example 20, N-lauroyl-L-valine] | decreased

same assay, conditions: 500 mg/kg orally once a day; 26th day; vs vehicle group and pair-feeding group; FIG. 2

Row | Compound | glycated hemoglobin level
3 | CCCCCCCCCCCC(=O)N[C@H](C(=O)O)C(C)C [Example 20, N-lauroyl-L-valine] | significantly lower

same assay, conditions: 500 mg/kg orally once a day; 27th day vs before; increased in control groups; FIG. 3

Row | Compound | fasting insulin concentration in plasma
4 | CCCCCCCCCCCC(=O)N[C@H](C(=O)O)C(C)C [Example 20, N-lauroyl-L-valine] | such increase was not seen

same assay, conditions: 500 mg/kg orally once a day; 27th day; vs control groups; FIG. 6

Row | Compound | triglyceride concentration in plasma
5 | CCCCCCCCCCCC(=O)N[C@H](C(=O)O)C(C)C [Example 20, N-lauroyl-L-valine] | tended to be lower

test system: acyl-CoA oxidase (ACO) gene; experiment: ACO mRNA expression level in liver of ob/ob mice; type: in vivo; settings: 500 mg/kg orally once a day; autopsy 38th day; divided by GAPDH mRNA; vs control groups; FIG. 5
Protocol: as §1

Row | Compound | ACO mRNA expression level in the liver
6 | CCCCCCCCCCCC(=O)N[C@H](C(=O)O)C(C)C [Example 20, N-lauroyl-L-valine] | significantly increased

test system: 3T3-L1 cells; experiment: Adiponectin output in culture supernatant of differentiated 3T3-L1 cells (LANCE immunoassay); type: cell-based, mouse; settings: adiponectin concentration in culture supernatant, test compound 7 μg/mL, 72 hours; control without compound 24 ng/mL
Protocol: 3T3-L1 cells were suspended in Dulbecco's Modified Eagle Medium (GIBCO, 12430-054) containing 10% fetal bovine serum to become 1.5×10^5 cells/mL and seeded. After the incubation in the CO2 incubator at 37° C. for 72 hours, the medium was removed by suction. Then, the medium was exchanged for Dulbecco's Modified Eagle Medium containing 10 μg/mL of insulin, 1 μM of dexamethasone, 0.5 mM of IBMX (3-isobutyl-1-methylxanthine) and 10% fetal bovine serum, and further incubated in the CO2 incubator at 37° C. for 48 hours. The test compound was added to the medium, and then the incubation was continued for 72 hours.
Eu (Europium) chelate labeling of anti-mouse adiponectin antibody (AF1119, by R&D Systems) was conducted by using 100 μg of LANCE Eu-W1024-ITC chelate (AD0013 by Perkin Elmer), which is a Eu chelate labeling reagent, to 200 μg of the antibody in accordance with the method described in the manual of the manufacturer. Biotin labeling of anti-mouse adiponectin antibody (AF1119, by R&D Systems) was conducted by using 26.8 μg of NHS-Biotin (1418165, Biotin Labeling Kit, by Boehringer Mannheim), which is a biotin labeling reagent, to 100 μg of the antibody in accordance with the method described in the manual.
The amount of adiponectin in the cell culture supernatant was measured as follows. The culture supernatant was diluted fivefold with TBS (Tris-buffered saline; 20 mM Tris-HCl pH 7.4, 0.15M NaCl) containing 0.1% bovine serum albumin (BSA), and 10 μL thereof was mixed with 300 ng/mL of the Eu chelate labeled antibody, 300 ng/mL of the biotin labeled antibody, 2.5 μg/mL of Streptavidin-APC (AD0201, by Perkin Elmer) and 10 μL of a TBS solution containing 0.1% BSA on the 384-well plate. After preserving the mixture at room temperature for 2 days, LANCE count was measured by using ARVO-SX multilabel counter (by Perkin Elmer) in accordance with the protocol of the LANCE method. At the same time, the mouse adiponectin preparation (8060-K, by LINCO) was also measured, and the concentration of adiponectin in the culture supernatant was calculated from the calibration curve of the preparation.
Adiponectin outputs were measured by the same method as that of Examples 1 to 31.

Row | Compound | Adiponectin output
7 | CCCCCCCCCCCC(=O)NC(C)(C)C(=O)O [Example 17] | 81 ng/mL
8 | CCCCCCCCCCCC(=O)NC(C(N)=O)C(C)C (racemic) [Example 21] | 70 ng/mL
9 | CCCCCCCCCCCC(=O)N[C@@H](CCSC)C(=O)O [Example 19] | 71 ng/mL
10 | CCCCCCCCCCCC(=O)NC(C)(C(=O)O)C(C)C (racemic) [Example 18] | 87 ng/mL
11 | C=CCCCCCCCCC(=O)N[C@@H](Cc1ccccc1)C(=O)O [Example 8] | 54 ng/mL
12 | CCCCCCCCCCCCNC(=O)C(NC(=O)CCCCCCCCCCC)C(C)C (racemic) [Example 22] | 64 ng/mL
13 | CCCCCCCCCCC(=O)N[C@@H](Cc1ccccc1)C(=O)O [Example 12] | 58 ng/mL
14 | CCCCCCCCCCCC(=O)N(CC)[C@H](C(=O)O)C(C)C [Example 24] | 66 ng/mL
15 | CCCCCCCCCCCC(=O)N[C@H](C(=O)NC1CCCCC1)C(C)C (racemic) [Example 23, N-lauroyl-L-valine cyclohexylamide] | 65 ng/mL
16 | CCCCCCCCCCCC(=O)NC(C)(CC)C(=O)O (racemic) [Example 16] | 78 ng/mL

same assay, conditions: adiponectin concentration in culture supernatant, test compound 12.5 μM, 72 hours; control without compound 24 ng/mL

Row | Compound | Adiponectin output
17 | C=CCCCCCCCCC(=O)N[C@@H](CC(C)C)C(=O)O [Example 7] | 61 ng/mL
18 | CCCCCCCCCCCCCCCC(=O)N[C@@H](CC(C)C)C(=O)O [Example 27] | 57 ng/mL
19 | CCCCCCCCCCCCCCCCCC(=O)N[C@H](C(=O)O)C(C)C [Example 30] | 43 ng/mL
20 | CCCCCCCCCCCC(=O)N[C@H](C(=O)O)[C@@H](C)CC [Example 14] | 84 ng/mL
21 | CCCCCCCCCCC(=O)N[C@@H](CC(C)C)C(=O)O [Example 11] | 45 ng/mL
22 | CCCCCCCCCCCC(=O)N[C@H](C(=O)O)C(C)C [Example 20, N-lauroyl-L-valine] | 92 ng/mL
23 | CCCCCCCCCCCCCC(=O)N[C@@H](CC(C)C)C(=O)O [Example 26] | 56 ng/mL
24 | CCCCCCCCC(=O)N[C@H](C(=O)O)C(C)C [Example 4] | 64 ng/mL
25 | CCCCCCCCCC(=O)N[C@H](C(=O)O)C(C)C [Example 9] | 81 ng/mL
26 | CCCCCCCCCC(=O)N[C@@H](CC(C)C)C(=O)O [Example 6] | 54 ng/mL
27 | CCCCCCCCC(=O)N[C@H](C(=O)O)[C@@H](C)CC [Example 2] | 58 ng/mL
28 | CCCCCCCCCCCCCCCCCC(=O)N[C@@H](CC(C)C)C(=O)O [Example 29] | 43 ng/mL
29 | CCCCCCCCC(=O)N[C@@H](CC(C)C)C(=O)O [Example 3] | 42 ng/mL
30 | C=CCCCCCCCCC(=O)N[C@H](C(=O)O)C(C)C [Example 10] | 59 ng/mL
31 | CCCCCCCCCCCCCC(=O)N[C@H](C(=O)O)[C@@H](C)CC [Example 25] | 93 ng/mL
32 | CCCCCCCCCC(=O)N[C@H](C(=O)O)[C@@H](C)CC [Example 5] | 74 ng/mL
33 | CCCCCCCCCCCC(=O)N[C@@H](CC(C)C)C(=O)O [Example 15] | 67 ng/mL
34 | CCCCCCCCCCCCCCCC(=O)N[C@H](C(=O)O)C(C)C [Example 28] | 31 ng/mL
35 | CCCCCCCCCCCCCCCCCCCCCC(=O)N[C@H](C(=O)O)C(C)C [Example 31] | 42 ng/mL

same assay, conditions: adiponectin output as ratio to that of Example 20 in Table 1; same method as Examples 1 to 31

Row | Compound | Adiponectin Ratio to Exam. 20 of Table 1
36 | CCCCCCCCCCCC(=O)NC(C(=O)O)C(C(F)(F)F)C(F)(F)F (racemic) [Example 34] | 25%
37 | CCCCCCCCCCCC(=O)NC(C(=O)O)C(C)CC (centres unmarked) [Example 35] | 83%
38 | CCCCCCCCCCCC(=O)N[C@H](C(=O)O)c1ccccc1 [Example 36] | 33%
39 | CCCCCCCCCCCC(=O)N[C@H](C(=O)O)C(c1ccccc1)c1ccccc1 [Example 40] | 14%
40 | CCCCCCCCCCCC(=O)N[C@H](C(=O)O)C1CCCCC1 [Example 39] | 41%
41 | CCCCCCCCCCCC(=O)N[C@@H](Cc1csc2ccccc12)C(=O)O [Example 43] | 20%
42 | CCCCCCCCCCCC(=O)N[C@@H](Cc1ccc(Cl)cc1)C(=O)O [Example 42] | 44%
43 | CCCCCCCCCCCC(=O)NC(Cc1ccccc1C)C(=O)O (racemic) [Example 38] | 31%
44 | CCCCCCCCCCCC(=O)N[C@@H](Cc1ccc(OC)cc1)C(=O)O [Example 37] | 46%
45 | CCCCCCCCCCCC(=O)NC(C)(Cc1ccccc1)C(=O)O (racemic) [Example 41] | 22%
46 | CCCCCCCCCC(=O)N[C@H](C(=O)O)C(C)(C)C [Example 32] | 56%
47 | CCCCCCCCCCCC(=O)N[C@H](C(=O)O)C(C)(C)C [Example 33] | 103%
